Source: patent US12065436B2, “Cardiac sarcomere inhibitors” (Cytokinetics, Inc., priority 2018, dated 2024)
Like-named read-outs stand apart in the source and are kept apart here.

Tests used:
[1] = tested on: rat cardiac contractility (left ventricle fractional shortening); assay: Echocardiography of acute effect on rat cardiac contractility, oral gavage; assay type: in vivo, Sprague Dawley rats; conditions: for inhibition in vivo at 10 mg/kg / IC50 / inhibition in vivo at 8 mg/kg / inhibition in vivo at 6 mg/kg: Rattus norvegicus; for inhibition in vivo at 10 mg/kg / inhibition in vivo at 8 mg/kg / inhibition in vivo at 6 mg/kg: oral gavage; for IC50 / IC10: oral dosing, estimated; for IC50: plasma concentration at which fractional shortening is 50% of pre-dose baseline; for IC10: plasma concentration at which
Protocol: Assessment of in vivo cardiac function by echocardiography was performed in male Sprague Dawley rats under isoflurane (1-3%) anesthesia. 2-D M-mode images of the left ventricle were acquired in the parasternal long-axis view before, during, and after administration of compounds by continuous IV infusion or oral gavage. In vivo fractional shortening was determined by M-mode image analysis with the following calculation: ((End diastolic diameter−end systolic diameter)/end diastolic diameter×100). For continuous IV infusion experiments, three pre-dose baseline M-mode images were taken at 1 minute intervals prior to infusion of compound. Compounds were formulated in 50% Propylene Glycol (PG): 16% Captisol: 10% dimethylacetamide (DMA) and delivered via a jugular vein catheter at the rate of 1 mL/kg/h. During infusion, M-mode images were taken at 5 minute intervals. The infusion stopped when fractional shortening reached up to a 60% reduction from baseline. Blood samples were taken to determine the plasma concentration of the compounds. Data was reported as an estimated IC50 value, which is the concentration at which fractional shortening is 50% of the pre-dose baseline contractility.
For oral dosing studies, three pre-dose baseline M-Mode images were taken at 1 minute intervals prior to compound administration. Compounds were formulated in a 0.5% hydroxypropyl methylcellulose 2910 (HPMC 2910): 0.1% Tween 80 suspension and delivered as a single dose (5 mL/kg) by oral gavage. Rats were lightly anesthetized for M-Mode echocardiography measurements at select time points over a 24 hour period. Different dose levels were evaluated for each compound. The compound effect on cardiac fractional shortening at the highest dose evaluated is presented in Table D as a percent reduction of baseline fractional shortening (=100%).
Concurrent with echocardiography measurements, blood samples were taken to determine the corresponding compound plasma concentration.

[2] = molecular target: bovine cardiac myofibrils (full-length cardiac myosin ATPase in the native sarcomere) (Bos taurus (Bovine), UniProt Q9BE39); assay: Skinned bovine cardiac myofibril ATPase assay (PK/LDH-coupled); assay type: biochemical; conditions: Ca2+ activating to 75% of maximal rate; for CDMF75 IC15: concentration giving 15% inhibition; for IC50: read-out: CDMF75 IC50
Procedure, shortened: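 Inhibition of steady-state ATPase read at 340 nm through a PK/LDH-coupled NADH system (0.5 mM NADH, 1.5 mM PEP). Detergent-skinned bovine cardiac myofibrils, 1 mg/mL, were tested at pH 6.8 in PIPES/MgCl2 with 50 μM ATP and calcium adjusted to give pCa50 or pCa75 activation.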

[3] = 1 h, 1-2 h post dose, read-out: FS (% reduction from baseline) at 1-2 h post dose (Mean ± S.D.)
[4] = 4 h post dose, read-out: FS (% reduction from baseline) at 4 h post dose (Mean ± S.D.)

bovine cardiac myofibrils (full-length cardiac myosin ATPase in the native sarcomere), sequence (Q9BE39 whole entry): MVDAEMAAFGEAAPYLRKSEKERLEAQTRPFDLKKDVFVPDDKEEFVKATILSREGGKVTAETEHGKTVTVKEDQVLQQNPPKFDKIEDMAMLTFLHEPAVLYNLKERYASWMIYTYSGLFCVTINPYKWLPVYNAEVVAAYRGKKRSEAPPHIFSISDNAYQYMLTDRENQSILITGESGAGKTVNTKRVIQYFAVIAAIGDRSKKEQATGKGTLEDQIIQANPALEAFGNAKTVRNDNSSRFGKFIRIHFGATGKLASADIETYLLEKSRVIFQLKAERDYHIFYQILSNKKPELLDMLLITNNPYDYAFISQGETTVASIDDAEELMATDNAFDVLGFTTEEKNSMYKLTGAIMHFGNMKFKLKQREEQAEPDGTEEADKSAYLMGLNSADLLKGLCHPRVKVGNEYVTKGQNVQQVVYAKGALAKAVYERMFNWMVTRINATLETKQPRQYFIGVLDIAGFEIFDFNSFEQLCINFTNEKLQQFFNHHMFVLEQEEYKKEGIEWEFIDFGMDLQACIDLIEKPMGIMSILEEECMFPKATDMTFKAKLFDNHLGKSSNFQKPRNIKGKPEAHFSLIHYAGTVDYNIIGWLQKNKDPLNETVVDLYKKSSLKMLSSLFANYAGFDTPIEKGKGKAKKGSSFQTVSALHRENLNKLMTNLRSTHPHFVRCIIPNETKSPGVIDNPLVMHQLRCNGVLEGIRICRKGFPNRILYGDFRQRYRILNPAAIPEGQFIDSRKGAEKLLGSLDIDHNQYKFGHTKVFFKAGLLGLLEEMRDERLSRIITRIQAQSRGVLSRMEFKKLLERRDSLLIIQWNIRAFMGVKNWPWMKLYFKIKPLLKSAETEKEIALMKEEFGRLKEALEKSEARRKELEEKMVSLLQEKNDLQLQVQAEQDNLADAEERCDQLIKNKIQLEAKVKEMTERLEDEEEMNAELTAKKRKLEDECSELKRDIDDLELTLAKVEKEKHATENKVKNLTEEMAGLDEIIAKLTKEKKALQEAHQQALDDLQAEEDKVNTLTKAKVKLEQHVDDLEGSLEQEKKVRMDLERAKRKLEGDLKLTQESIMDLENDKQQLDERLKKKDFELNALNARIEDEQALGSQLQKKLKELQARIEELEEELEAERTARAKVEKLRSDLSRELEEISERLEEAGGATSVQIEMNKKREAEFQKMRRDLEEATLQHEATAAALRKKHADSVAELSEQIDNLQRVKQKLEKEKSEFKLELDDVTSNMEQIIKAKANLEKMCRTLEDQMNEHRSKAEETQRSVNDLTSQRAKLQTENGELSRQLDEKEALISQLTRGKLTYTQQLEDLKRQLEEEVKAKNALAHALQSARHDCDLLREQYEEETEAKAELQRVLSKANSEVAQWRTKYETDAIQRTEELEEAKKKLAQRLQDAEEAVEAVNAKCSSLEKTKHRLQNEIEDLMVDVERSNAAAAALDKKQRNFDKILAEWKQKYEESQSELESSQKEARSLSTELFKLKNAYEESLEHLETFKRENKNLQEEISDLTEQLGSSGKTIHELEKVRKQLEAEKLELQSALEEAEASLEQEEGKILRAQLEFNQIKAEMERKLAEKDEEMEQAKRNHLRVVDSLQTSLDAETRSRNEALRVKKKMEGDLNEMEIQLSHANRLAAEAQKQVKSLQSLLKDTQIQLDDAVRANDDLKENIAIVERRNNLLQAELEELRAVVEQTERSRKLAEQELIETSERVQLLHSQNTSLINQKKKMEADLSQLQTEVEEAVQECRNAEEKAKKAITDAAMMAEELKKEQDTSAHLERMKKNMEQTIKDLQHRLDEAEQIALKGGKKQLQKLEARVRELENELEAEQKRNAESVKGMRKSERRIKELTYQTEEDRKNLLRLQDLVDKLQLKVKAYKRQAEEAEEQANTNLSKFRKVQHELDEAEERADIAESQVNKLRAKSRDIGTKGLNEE
bovine cardiac myofibrils (full-length cardiac myosin ATPase in the native sarcomere), sequence (P85100 whole entry partner): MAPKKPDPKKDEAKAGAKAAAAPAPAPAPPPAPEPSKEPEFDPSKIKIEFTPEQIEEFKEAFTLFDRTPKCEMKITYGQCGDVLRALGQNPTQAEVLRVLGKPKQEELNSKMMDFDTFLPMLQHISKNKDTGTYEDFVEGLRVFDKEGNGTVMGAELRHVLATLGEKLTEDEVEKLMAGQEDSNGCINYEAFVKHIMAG
bovine cardiac myofibrils (full-length cardiac myosin ATPase in the native sarcomere), sequence (Q3SZE5 whole entry partner): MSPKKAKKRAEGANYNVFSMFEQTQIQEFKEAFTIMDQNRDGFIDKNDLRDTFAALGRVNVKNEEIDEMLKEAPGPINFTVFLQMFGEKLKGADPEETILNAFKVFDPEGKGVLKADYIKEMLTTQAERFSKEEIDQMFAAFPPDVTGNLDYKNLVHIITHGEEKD

Structure (SMILES) | CDMF75 IC15 [2] | IC50 [2] | other results
Cc1cc(C(=O)NC2CCc3cc(-c4noc(C)n4)ccc32)ccn1 (centres unmarked) [Compound 3, 2-methyl-N-(5-(5-methyl-1,2,4-oxadiazol-3-yl)-2,3-dihydro-1H-inden-1-yl)isonicotinamide] | 1800 nM | 7000 nM | 
C[C@@H](CO)c1nc(-c2ccc3c(c2)CC[C@H]3NC(=O)c2ccnn2C)no1 [Compound 498, N-((R)-5-(5-((S)-1-hydroxypropan-2-yl)-1,2,4-oxadiazol-3-yl)-2,3-dihydro-1H-inden-1-yl)-1-methyl-1H-pyrazole-5-carboxamide] | 7900 nM | 34700 nM | 
Cc1nc(-c2cnc3c(c2)CCC3NC(=O)c2ccccc2)no1 (centres unmarked) [Compound 42, N-(3-(5-methyl-1,2,4-oxadiazol-3-yl)-6,7-dihydro-5H-cyclopental[b]pyridin-7-yl)benzamide] | 7200 nM | 31600 nM | 
CCc1nc(-c2ccc3c(c2)CC[C@H]3NC(=O)c2cccc(C)n2)no1 [Compound 594, (R)-N-(5-(5-ethyl-1,2,4-oxadiazol-3-yl)-2,3-dihydro-1H-inden-1-yl)-6-methylpicolinamide] | 1400 nM | 5800 nM | 
Cc1nc(-c2ccc3c(c2)OCC3NC(=O)c2cnn(C)c2C)no1 (centres unmarked) [Compound 162, 1,5-dimethyl-N-(6-(5-methyl-1,2,4-oxadiazol-3-yl)-2,3-dihydrobenzofuran-3-yl)-1H-pyrazole-4-carboxamide] | 1600 nM | 6400 nM | 
Cc1nc(C(=O)NC2CCc3cc(-c4noc(C(F)F)n4)ccc32)c(C)o1 (centres unmarked) [Compound 22, N-(5-(5-(difluoromethyl)-1,2,4-oxadiazol-3-yl)-2,3-dihydro-1H-inden-1-yl)-2,5-dimethyloxazole-4-carboxamide] | 5500 nM | 28200 nM | 
CCC(=O)N[C@@H]1CCc2cc(-c3noc(C(F)F)n3)ccc21 [Compound 283, (R)-N-(5-(5-(difluoromethyl)-1,2,4-oxadiazol-3-yl)-2,3-dihydro-1H-inden-1-yl)propionamide] | 9600 nM | > 39200 nM | 
CCc1nc(-c2cnc3c(c2)CCC3NC(=O)c2ccccc2)no1 (centres unmarked) [Compound 17, N-(3-(5-ethyl-1,2,4-oxadiazol-3-yl)-6,7-dihydro-5H-cyclopenta[b]pyridin-7-yl)benzamide] | 2300 nM | 11300 nM | 
COCCn1cc(C(=O)N[C@@H]2CCc3cc(-c4noc(COC)n4)ccc32)cn1 [Compound 512, (R)-1-(2-methoxyethyl)-N-(5-(5-(methoxymethyl)-1,2,4-oxadiazol-3-yl)-2,3-dihydro-1H-inden-1-yl)-1H-pyrazole-4-carboxamide] | 4500 nM | 18200 nM | 
Cn1nccc1C(=O)N[C@@H]1CCc2cc(-c3ccccc3)ccc21 [Compound 372, (R)-1-methyl-N-(5-phenyl-2,3-dihydro-1H-inden-1-yl)-1H-pyrazole-5-carboxamide] | 3500 nM | 15700 nM | 

Molecules with a lower IC50 [2], results first:

CDMF75 IC15 [2] | IC50 [2] | Structure (SMILES) | other results
900 nM | 3700 nM | COCc1nc(-c2ccc3c(c2)CC[C@H]3NC(=O)c2nnc(C)o2)no1 [Compound 697, (R)-N-(5-(5-(methoxymethyl)-1,2,4-oxadiazol-3-yl)-2,3-dihydro-1H-inden-1-yl)-5-methyl-1,3,4-oxadiazole-2-carboxamide] | inhibition in vivo at 10 mg/kg [1, 3]: 70 ± 2%; IC50 [1]: 8300 nM; inhibition in vivo at 10 mg/kg [1, 4]: 45 ± 3%; IC10 [1]: 3300 nM
600 nM | 2300 nM | O=C(N[C@@H]1COc2cc(-c3noc(C(F)F)n3)ccc21)c1ccnc(CO)c1 [Compound 709, (S)-N-(6-(5-(difluoromethyl)-1,2,4-oxadiazol-3-yl)-2,3-dihydrobenzofuran-3-yl)-2-(hydroxymethyl)isonicotinamide] | inhibition in vivo at 8 mg/kg [1, 3]: 68 ± 2%; IC50 [1]: 4300 nM; inhibition in vivo at 8 mg/kg [1, 4]: 31 ± 3%; IC10 [1]: 1500 nM
600 nM | 2200 nM | O=C(N[C@@H]1CCc2cc(-c3noc(C4CC4)n3)ccc21)c1cn[nH]c1 [Compound 489, (R)-N-(5-(5-cyclopropyl-1,2,4-oxadiazol-3-yl)-2,3-dihydro-1H-inden-1-yl)-1H-pyrazole-4-carboxamide] | inhibition in vivo at 6 mg/kg [1, 3]: 65 ± 6%; IC50 [1]: 2400 nM; inhibition in vivo at 6 mg/kg [1, 4]: 35 ± 6%; IC10 [1]: 700 nM
400 nM | 1800 nM | CCc1nc(-c2ccc3c(c2)OCC[C@H]3NC(=O)c2ccnn2C)no1 [Compound 537, (R)-N-(7-(5-ethyl-1,2,4-oxadiazol-3-yl)chroman-4-yl)-1-methyl-1H-pyrazole-5-carboxamide] | 
400 nM | 1300 nM | CCc1nc(-c2ccc3c(c2)CC[C@H]3NC(=O)c2ccno2)no1 [Compound 582, (R)-N-(5-(5-ethyl-1,2,4-oxadiazol-3-yl)-2,3-dihydro-1H-inden-1-yl)isoxazole-5-carboxamide] | 
500 nM | 1600 nM | Cn1cc(C(=O)N[C@@H]2COc3cc(-c4noc(C(F)F)n4)ccc32)cn1 [Compound 218, (S)-N-(6-(5-(difluoromethyl)-1,2,4-oxadiazol-3-yl)-2,3-dihydrobenzofuran-3-yl)-1-methyl-1H-pyrazole-4-carboxamide] | 
600 nM | 2200 nM | COCc1nc(-c2ccc3c(c2)CC[C@H]3NC(=O)c2cccc(CO)c2)no1 [Compound 668, (R)-3-(hydroxymethyl)-N-(5-(5-(methoxymethyl)-1,2,4-oxadiazol-3-yl)-2,3-dihydro-1H-inden-1-yl)benzamide] | 
300 nM | 900 nM | CCc1nc(-c2ccc3c(c2)CC[C@H]3NC(=O)c2ccc(=O)[nH]c2)no1 [Compound 604, (R)-N-(5-(5-ethyl-1,2,4-oxadiazol-3-yl)-2,3-dihydro-1H-inden-1-yl)-6-oxo-1,6-dihydropyridine-3-carboxamide] | 
900 nM | 2700 nM | Cc1cc(C(=O)N[C@@H]2CCc3cc(-c4noc(C(C)C)n4)ccc32)ccn1 [Compound 392, (R)-N-(5-(5-isopropyl-1,2,4-oxadiazol-3-yl)-2,3-dihydro-1H-inden-1-yl)-2-methylisonicotinamide] | 
500 nM | 2400 nM | COCc1nc(-c2ccc3c(c2)OC[C@H]3NC(=O)c2cccc(CO)c2)no1 [Compound 712, (S)-3-(hydroxymethyl)-N-(6-(5-(methoxymethyl)-1,2,4-oxadiazol-3-yl)-2,3-dihydrobenzofuran-3-yl)benzamide] | 
600 nM | 2100 nM | CCc1nc(-c2ccc3c(c2)CC[C@H]3NC(=O)C(F)F)no1 [Compound 436, (R)-N-(5-(5-ethyl-1,2,4-oxadiazol-3-yl)-2,3-dihydro-1H-inden-1-yl)-2,2-difluoroacetamide] | 
300 nM | 800 nM | CCc1nc(-c2ccc3c(c2)CC[C@H]3NC(=O)c2ocnc2C)no1 [Compound 386, (R)-N-(5-(5-ethyl-1,2,4-oxadiazol-3-yl)-2,3-dihydro-1H-inden-1-yl)-4-methyloxazole-5-carboxamide] | 
1200 nM | 5100 nM | CCc1nc(-c2ccc3c(c2)CC[C@H]3NC(=O)c2cnn(CC(O)CO)c2)no1 (stereo partly drawn) [Compound 553, N-{(1R)-5-(5-ethyl(1,2,4-oxadiazol-3-yl))indanyl][1-(2,3-dihydroxypropyl)pyrazol-4-yl]carboxamide] | 
400 nM | 1600 nM | CCc1nc(-c2ccc3c(c2)CC[C@H]3NC(=O)c2ccccn2)no1 [Compound 623, (R)-N-(5-(5-ethyl-1,2,4-oxadiazol-3-yl)-2,3-dihydro-1H-inden-1-yl)picolinamide] | 
900 nM | 3700 nM | COCc1nc(-c2ccc3c(c2)CC[C@H]3NC(=O)OC)no1 [Compound 306, methyl (R)-(5-(5-(methoxymethyl)-1,2,4-oxadiazol-3-yl)-2,3-dihydro-1H-inden-1-yl)carbamate] | 
